Data taken from ChEMBL document CHEMBL1909046, “DrugMatrix in vitro pharmacology data”.

How the values were obtained:
[1] = target: Receptor tyrosine-protein kinase erbB-2 (Homo sapiens, UniProt P04626); test: biochemical; assay type: cell-based, Insect cells; conditions: insect cells;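 note: inhibition of HER2 kinase enzyme activity, measured with Poly(Glu:Tyr) as the phosphorylation substrate; in other assays of this panel Not Active means under 50% inhibition at 10 µM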
[2] = target: C-C chemokine receptor type 2 (Homo sapiens, UniProt P41597); assay type: cell membranes, CHO-K1, Membrane; conditions: cho-k1; note: in other assays of this panel Not Active means under 50% inhibition at 10 µM
[3] = DRUGMATRIX: Serotonin (5-Hydroxytryptamine) 5-HT3 radioligand binding (ligand: [3H] GR-65630); assay type: cell membranes, Membrane; conditions: hek293; Not Active = under 50% inhibition at 10 µM
[4] = target: T1, Vasoactive intestinal polypeptide receptor 1 (Homo sapiens, UniProt P32241); assay type: cell membranes, Membrane; conditions: ht-29; note: in other assays of this panel Not Active means under 50% inhibition at 10 µM
T1 sequence (P32241 whole entry): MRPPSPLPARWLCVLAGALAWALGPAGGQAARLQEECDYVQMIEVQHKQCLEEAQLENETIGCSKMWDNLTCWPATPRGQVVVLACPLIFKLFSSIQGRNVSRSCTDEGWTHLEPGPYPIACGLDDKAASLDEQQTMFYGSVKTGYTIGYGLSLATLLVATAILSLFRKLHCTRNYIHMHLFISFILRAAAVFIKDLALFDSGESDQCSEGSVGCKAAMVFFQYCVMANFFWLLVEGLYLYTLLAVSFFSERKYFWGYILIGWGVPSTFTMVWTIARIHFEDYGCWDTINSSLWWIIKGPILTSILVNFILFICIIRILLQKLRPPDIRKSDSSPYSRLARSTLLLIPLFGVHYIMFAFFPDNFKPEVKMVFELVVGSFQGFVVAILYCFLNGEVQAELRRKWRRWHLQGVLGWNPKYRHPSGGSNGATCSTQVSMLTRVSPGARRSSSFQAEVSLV

[5] = target: T2, Endothelin-1 receptor (Homo sapiens, UniProt P25101); assay type: cell membranes, Membrane; conditions: cho-k1; note: in other assays of this panel Not Active means under 50% inhibition at 10 µM
T2 sequence (P25101 whole entry): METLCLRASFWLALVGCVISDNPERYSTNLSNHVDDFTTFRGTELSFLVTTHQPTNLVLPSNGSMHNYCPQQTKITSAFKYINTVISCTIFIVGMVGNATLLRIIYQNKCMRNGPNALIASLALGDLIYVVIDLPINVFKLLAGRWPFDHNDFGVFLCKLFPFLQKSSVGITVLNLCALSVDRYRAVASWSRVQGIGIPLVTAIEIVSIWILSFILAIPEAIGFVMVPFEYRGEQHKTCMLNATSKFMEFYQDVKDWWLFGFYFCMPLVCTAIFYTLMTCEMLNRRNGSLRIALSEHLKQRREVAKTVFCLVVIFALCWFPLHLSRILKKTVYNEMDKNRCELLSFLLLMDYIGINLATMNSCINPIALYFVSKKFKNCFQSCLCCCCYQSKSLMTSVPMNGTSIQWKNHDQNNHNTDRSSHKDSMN

[6] = target: Tyrosine-protein kinase Fyn (Homo sapiens, UniProt P06241); test: biochemical; assay type: cell-based, Insect cells; conditions: insect cells
Sequence of Tyrosine-protein kinase Fyn (P06241 whole entry): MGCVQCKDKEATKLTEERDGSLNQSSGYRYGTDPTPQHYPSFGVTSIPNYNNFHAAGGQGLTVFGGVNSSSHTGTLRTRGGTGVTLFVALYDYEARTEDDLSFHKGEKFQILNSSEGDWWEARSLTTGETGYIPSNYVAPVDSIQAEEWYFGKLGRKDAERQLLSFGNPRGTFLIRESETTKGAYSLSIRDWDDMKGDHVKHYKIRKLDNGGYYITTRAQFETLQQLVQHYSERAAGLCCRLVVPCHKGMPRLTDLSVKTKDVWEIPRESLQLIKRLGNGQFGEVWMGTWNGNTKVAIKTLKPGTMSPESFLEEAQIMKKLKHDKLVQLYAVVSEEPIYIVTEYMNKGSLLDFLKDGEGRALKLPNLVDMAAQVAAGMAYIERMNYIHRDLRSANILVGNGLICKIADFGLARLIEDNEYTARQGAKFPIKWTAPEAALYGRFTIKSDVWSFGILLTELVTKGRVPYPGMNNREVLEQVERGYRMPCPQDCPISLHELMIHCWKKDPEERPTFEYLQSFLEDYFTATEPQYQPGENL

Sequence of Receptor tyrosine-protein kinase erbB-2 (P04626 whole entry): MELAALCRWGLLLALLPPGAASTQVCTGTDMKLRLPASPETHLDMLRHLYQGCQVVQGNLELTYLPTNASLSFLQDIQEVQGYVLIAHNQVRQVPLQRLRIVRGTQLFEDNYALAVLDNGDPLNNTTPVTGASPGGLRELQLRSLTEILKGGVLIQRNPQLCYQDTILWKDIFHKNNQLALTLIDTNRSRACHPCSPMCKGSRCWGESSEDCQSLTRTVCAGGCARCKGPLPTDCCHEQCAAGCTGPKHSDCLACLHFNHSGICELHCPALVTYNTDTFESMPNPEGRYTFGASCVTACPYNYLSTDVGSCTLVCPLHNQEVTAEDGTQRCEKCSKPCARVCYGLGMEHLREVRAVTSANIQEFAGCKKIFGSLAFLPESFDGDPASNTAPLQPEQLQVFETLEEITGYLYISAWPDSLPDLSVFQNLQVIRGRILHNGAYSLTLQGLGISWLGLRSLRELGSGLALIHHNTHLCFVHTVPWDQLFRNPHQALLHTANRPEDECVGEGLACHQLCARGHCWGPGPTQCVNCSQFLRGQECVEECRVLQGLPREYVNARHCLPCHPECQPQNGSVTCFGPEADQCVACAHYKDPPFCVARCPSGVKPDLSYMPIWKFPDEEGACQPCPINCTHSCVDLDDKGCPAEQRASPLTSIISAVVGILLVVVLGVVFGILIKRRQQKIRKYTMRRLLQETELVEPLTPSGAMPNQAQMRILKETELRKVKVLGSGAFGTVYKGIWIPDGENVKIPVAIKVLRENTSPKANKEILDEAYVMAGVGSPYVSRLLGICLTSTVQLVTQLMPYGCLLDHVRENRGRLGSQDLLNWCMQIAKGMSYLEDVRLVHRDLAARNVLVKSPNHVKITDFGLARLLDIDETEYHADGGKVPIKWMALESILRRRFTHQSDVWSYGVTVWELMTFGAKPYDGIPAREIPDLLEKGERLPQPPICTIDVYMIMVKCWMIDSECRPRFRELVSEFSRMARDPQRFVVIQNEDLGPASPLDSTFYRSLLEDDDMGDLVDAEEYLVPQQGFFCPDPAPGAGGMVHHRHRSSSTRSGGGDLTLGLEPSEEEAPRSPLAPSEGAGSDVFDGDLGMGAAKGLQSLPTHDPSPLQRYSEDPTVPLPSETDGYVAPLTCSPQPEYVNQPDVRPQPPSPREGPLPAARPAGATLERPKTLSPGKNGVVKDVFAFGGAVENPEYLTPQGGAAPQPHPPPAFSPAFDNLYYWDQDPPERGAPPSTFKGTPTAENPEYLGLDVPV
Sequence of C-C chemokine receptor type 2 (P41597 whole entry): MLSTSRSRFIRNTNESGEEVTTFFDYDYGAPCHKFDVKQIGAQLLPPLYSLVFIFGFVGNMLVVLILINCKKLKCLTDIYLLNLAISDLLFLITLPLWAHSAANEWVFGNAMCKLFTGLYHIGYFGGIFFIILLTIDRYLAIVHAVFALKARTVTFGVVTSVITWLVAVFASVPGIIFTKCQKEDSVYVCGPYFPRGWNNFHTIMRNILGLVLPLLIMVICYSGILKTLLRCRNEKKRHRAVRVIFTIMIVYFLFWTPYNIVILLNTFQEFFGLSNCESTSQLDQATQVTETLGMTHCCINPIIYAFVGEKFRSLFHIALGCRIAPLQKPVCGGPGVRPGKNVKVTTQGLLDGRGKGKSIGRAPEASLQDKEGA

CCOC(=O)[C@H](CCc1ccccc1)N[C@H]1CCc2ccccc2N(CC(=O)O)C1=O [BENAZEPRIL]
Not Active: IC50 [1] | IC50 [2] | IC50 [3] | Ki [3] | IC50 [4] | IC50 [5] | IC50 [6]

CCOC(=O)C(C)(C)Oc1ccc(Cl)cc1 [CLOFIBRATE]
Not Active: IC50 [1] | IC50 [2] | IC50 [3] | Ki [3] | IC50 [4] | IC50 [5] | IC50 [6]

CC(=O)Nc1c(I)c(NC(C)=O)c(I)c(C(=O)O)c1I [DIATRIZOIC ACID]
Not Active: IC50 [1] | IC50 [2] | IC50 [3] | Ki [3] | IC50 [4] | IC50 [5] | IC50 [6]

CCOC(=O)C1=C(C)NC(C)=C(C(=O)OC)C1c1cccc([N+](=O)[O-])c1 (stereo unspecified) [NITRENDIPINE]
Not Active: IC50 [1] | IC50 [2] | IC50 [3] | Ki [3] | IC50 [4] | IC50 [5] | IC50 [6]

O=C1CC[C@H](N2C(=O)c3ccccc3C2=O)C(=O)N1
Not Active: IC50 [1] | IC50 [2] | IC50 [3] | Ki [3] | IC50 [4] | IC50 [5] | IC50 [6]

C/C=C/C[C@@H](C)[C@@H](O)[C@H]1C(=O)N[C@@H](CC)C(=O)N(C)CC(=O)N(C)[C@@H](CC(C)C)C(=O)N[C@@H](C(C)C)C(=O)N(C)[C@@H](CC(C)C)C(=O)N[C@@H](C)C(=O)N[C@H](C)C(=O)N(C)[C@@H](CC(C)C)C(=O)N(C)[C@@H](CC(C)C)C(=O)N(C)[C@@H](C(C)C)C(=O)N1C [CYCLOSPORINE]
Not Active: IC50 [1] | IC50 [2] | IC50 [3] | Ki [3] | IC50 [4] | IC50 [5] | IC50 [6]

CC(C)Cc1ccc(C(C)C(=O)O)cc1 (stereo unspecified) [IBUPROFEN]
Not Active: IC50 [1] | IC50 [2] | IC50 [3] | Ki [3] | IC50 [4] | IC50 [5] | IC50 [6]

CCCCN1CCCCC1C(=O)Nc1c(C)cccc1C.Cl (stereo unspecified) [BUPIVACAINE HYDROCHLORIDE]
Not Active: IC50 [1] | IC50 [2] | IC50 [3] | Ki [3] | IC50 [4] | IC50 [5] | IC50 [6]
